Test results from US7105566B2, “Methods of treatment during vascular procedures” (Allergan, Inc., priority 2002, dated 2006).
“And” between values parts separate entries of the source, which are not always exact repeats. Equal values may be shown once.

Tests used:
female ZDF rats = test: Serum triglycerides and cholesterol in female ZDF rats, Compound 1 and Compound 2 at 10 mg/kg; type: in vivo, rat; settings: 10 mg/kg oral
Description: A similar experiment to that described above was performed. Briefly, female ZDF rats (12 weeks old) were fed either a PM 5008 diet or a GMI 13004 diet. Control vehicle consisted of 2% DMSO and 98% corn oil. Compound 1 and Compound 2 were administered at a dosage of 10 mg/kg body weight. Dosings were administered at approximately 8 a.m. Serum was collected on the first day of dosing at approximately 8 a.m. (Day 1, 0 hour) and 2 p.m. (Day 1, 6 hour); the fourth day of dosing at approximately 8 a.m. (Day 4, 0 hour); and the last day of dosing at approximately 8 a.m. (Day 7, 0 hour) and 2 p.m. (Day 7, 6 hour). The levels of triglycerides and cholesterol in the serum samples were measured. The results are shown in Table 2 and are illustrated graphically in FIGS. 3A and 3B.

male SJL mice [1] = test: Serum triglycerides (STG) in male SJL mice; type: in vivo, mouse
Description: Male SJL mice were dosed orally with vehicle, Compound 1 (an RAR pan-antagonist), or Compound 3 (an RARE antagonist) for 4 consecutive days. The structure and synthesis of Compound 1 is described in Example I. The structure of Compound 3 is shown below, and the compound was synthesized using routine methods:
The test compounds were dissolved in corn oil and given at a dosage/volume of 20 mg/5 ml/kg.
On day 3, serum triglycerides (STG) were determined from samples collected at 7 a.m.
(§1) On day 4, animals were fasted after dosing, starting at 8 a.m. Following 6 hours of fasting, blood samples were collected prior to intravenous injection of WR-1339 at 100 mg/5 ml/kg. Additional serum samples were collected at 1 and 2 hours after WR-1339 injection. WR-1339 is a detergent that inactivates lipoprotein lipase and thus prevents the removal of triglycerides from circulation. By measuring the increase of STG after WR-1339 administration in fasted animals, the hepatic triglyceride (HTG) output during fasting can be estimated.
(§2) Due to the lack of effect of Compound 3 at 20 mg/kg, the dose was increased to 100 mg/kg in the same set of mice. STG was determined on day 3 prior to dosing (Day 3, 8 a.m.). […] To ensure that Compound 3 would be bioavailable, Compound 3 was dissolved in DMSO and given by intraperitoneal injections, once at 4 p.m. on day 3 and once at 8 a.m. on day 4, at a dosage of 100 mg/kg/injection. Administration of WR-1339 and blood collections on day 4 were similarly conducted as described above.

male SJL mice [2] = test: Hepatic triglyceride (HTG) output after WR-1339 injection in fasted male SJL mice; type: in vivo, mouse
Description: as §1, §2

[3] = test system: chronic hypertriglyceridemic patients; settings: de Man et al. 2000; cited from earlier work
[4] = GMI 13004 diet, group mean of 5 rats, first day of dosing, 2 p.m.
[5] = GMI 13004 diet, group mean of 5 rats, first day of dosing, about 8 a.m. (baseline)
[6] = GMI 13004 diet, group mean of 5 rats, fourth day of dosing, 8 a.m.
[7] = GMI 13004 diet, group mean of 5 rats, last day of dosing, 2 p.m.
[8] = GMI 13004 diet, group mean of 5 rats, last day of dosing, 8 a.m.
[9] = GMI 13004 diet, individual animals, first day of dosing, 2 p.m.
[10] = GMI 13004 diet, individual animals, first day of dosing, about 8 a.m. (baseline)
[11] = GMI 13004 diet, individual animals, fourth day of dosing, 8 a.m.
[12] = GMI 13004 diet, individual animals, last day of dosing, 2 p.m.
[13] = GMI 13004 diet, individual animals, last day of dosing, 8 a.m.

Structure (SMILES): Cc1ccc(C2=CC(C)(C)Oc3c(Br)cc(C(=O)Nc4ccc(C(=O)O)c(F)c4)cc32)cc1 [Compound 2]
- effect on lowering serum cholesterol (female ZDF rats): more modest effect
- serum triglycerides as % of pre-treatment levels (female ZDF rats): about 40%
- Cholesterol day 1, 6 hr, Mean (female ZDF rats; [4]): 106
- Triglycerides day 1, 6 hr, Mean (female ZDF rats; [4]): 1321
- Cholesterol day 1, 0 hr, Mean (female ZDF rats; [5]): 119
- Triglycerides day 1, 0 hr, Mean (female ZDF rats; [5]): 1471
- Cholesterol day 4, 0 hr, Mean (female ZDF rats; [6]): 77
- Triglycerides day 4, 0 hr, Mean (female ZDF rats; [6]): 571
- Cholesterol day 7, 6 hr, Mean (female ZDF rats; [7]): 62
- Triglycerides day 7, 6 hr, Mean (female ZDF rats; [7]): 602
- Cholesterol day 7, 0 hr, Mean (female ZDF rats; [8]): 66
- Triglycerides day 7, 0 hr, Mean (female ZDF rats; [8]): 560
- Cholesterol day 1, 6 hr (female ZDF rats; [9]): 114 and 84 and 90 and 108 and 132
- Triglycerides day 1, 6 hr (female ZDF rats; [9]): 1260 and 1338 and 1140 and 1344 and 1524
- Cholesterol day 1, 0 hr (female ZDF rats; [10]): 120 (2×) and 96 (2×) and 162
- Triglycerides day 1, 0 hr (female ZDF rats; [10]): 1464 and 1194 and 1284 and 1668 and 1746
- Cholesterol day 4, 0 hr (female ZDF rats; [11]): 84 and 66 and 72 (2×) and 90
- Triglycerides day 4, 0 hr (female ZDF rats; [11]): 642 and 804 and 210 and 630 and 570
- Cholesterol day 7, 6 hr (female ZDF rats; [12]): 72 and 60 (2×) and 54 and 66
- Triglycerides day 7, 6 hr (female ZDF rats; [12]): 402 and 600 and 360 and 738 and 912
- Cholesterol day 7, 0 hr (female ZDF rats; [13]): 78 (2×) and 60 (2×) and 54
- Triglycerides day 7, 0 hr (female ZDF rats; [13]): 294 and 588 and 474 and 726 and 720

Structure (SMILES): Cc1ccc(C2=CCC(C)(C)c3cc(O)c(C(=O)Nc4ccc(C(=O)O)c(F)c4)cc32)cc1 [Compound 3]
- non-fasting STG (Day 3, 8 a.m.) (male SJL mice [1]; 20 mg/kg oral daily): not observed
- STG 16 hours after a single intraperitoneal dose (Day 4, 8 a.m.) (male SJL mice [1]; 100 mg/kg intraperitoneal in DMSO): clear lowering of STG
- STG on day 3 prior to dosing (Day 3, 8 a.m.) (male SJL mice [1]; 100 mg/kg oral): no lowering of STG was observed
- STG after fasting (Day 4, 2 p.m.) (male SJL mice [1]; 100 mg/kg/injection intraperitoneal): effect disappeared after fasting
- HTG output after WR-1339 injection (male SJL mice [2]; 20 mg/kg oral daily for 4 days, fasted): not observed
- HTG output (male SJL mice [2]; 100 mg/kg/injection intraperitoneal, WR-1339, fasted): reduced

Structure (SMILES): CC(C)c1c(C(=O)Nc2ccccc2)c(-c2ccccc2)c(-c2ccc(F)cc2)n1CC[C@@H](O)C[C@@H](O)CC(=O)O [atorvastatin]
- effect on impaired vasodilation [3]: reverse the impaired vasodilation
